Reference: US20220008437A1, “Use of prostaglandin E1 methyl ester in manufacture of vasodilator” (XI'AN LIBANG ZHAOXIN BIOTECHNOLOGY CO., LTD., priority 2018, published 2022)
Where two headings read alike, the source gives them in different places.

Columns and labels:
[1] = test system: ADP-induced platelet aggregation; assay: anti-platelet aggregation test in vitro (platelet-rich plasma, ADP inducer); type: cell-based, SD rats; details: for inhibition at 100 µM: Rattus norvegicus, Platelet, 10 min, after 10 minutes of incubation, read-out: inhibition rate on ADP-induced platelet aggregation; for onset of anti-platelet aggregation effect after addition to PRP: incubation 0 min onward, FIG. 1
Protocol: The Effect of the Prostaglandin E1 Methyl Ester of the Disclosure in the Anti-Platelet Aggregation Test In Vitro.
When healthy adult SD rats were anesthetized by intraperitoneal injection of 10% chloral hydrate, fresh whole blood was collected from the abdominal aorta and added to a centrifuge tube anticoagulated with 3.8% sodium citrate solution, and centrifuged at 900 rpm for 10 minutes to remove the upper platelet-rich plasma (PRP) for use. The tube having PRP removed was further centrifuged at 4000 rpm for 10 minutes, and the upper clarified plasma (PPP) was removed for use. In the experiment, Techlink model LBY-NJ4 4-channel platelet aggregator was used to determine the anticoagulant efficacy of each compound.
Into a sample cup containing 300 μL of PRP, 2 μL of 100 μM prostaglandin E1, prostaglandin E1 methyl ester of example 1, Compound 2 of Example 2 and methanol (solvent) were first added. After incubated for different periods (0, 1, 2, 4, 7, 10, 15 min), 20 μL of aggregation inducer 180 μM ADP solution was added. The aggregation rate of each sample was measured, and the inhibitory rate of the compound on ADP-induced platelet aggregation was calculated.
Inhibition rate %=(solvent aggregation rate−compound aggregation rate)/solvent aggregation rate×100%

[2] = test system: human umbilical vein endothelial cells (HUVEC); assay: HUVEC proliferation, MTT detection; type: cell-based; details: 1-100 nM, incubated 24 hours, compared with unmedicated wells
Protocol: Frozen human umbilical vein endothelial cells (HUVEC) were resuscitated and placed in low-sugar DMEM medium with 10% (V/V) FBS, and 100 U/L penicillin and 0.1 g/L streptomycin were added. It was cultured artificially in an environment of 5% CO2 and 95% air at a temperature of 37° C. A fresh medium was replaced every three days. When the cell density reached 70-80%, the digestion solution (0.25% trypsin/0.02EDTA) was used to harvest the cells. After the cells were resuspended, they were seeded in a 96-well plate with a density of 5×10^3 per well. After 1 day of culture, 1-100 nM of prostaglandin methyl ester was added and incubated for 24 hours for MTT detection.

[3] = test system: isolated rabbit blood vessels; assay: vasodilation test in vitro, isolated aortic ring specimens; type: cell-based, New Zealand white rabbits; details: isolated rabbit thoracic aortic rings, cumulative addition 0.05-25.6 nM, read-out: diastolic efficacy EC50
Source text: The Effect of the Prostaglandin E1 Methyl Ester of the Disclosure in the Vasodilation Test In Vitro
In the experiment, rabbits were selected to prepare isolated aortic ring specimens: New Zealand white rabbits, male, weighing (2.5±0.3) kg. The rabbit was stunned with a blunt instrument, fixed on the rabbit dissecting table, and the thoracic aorta was quickly separated, and placed in a petri dish filled with saturated Kerbs solution (containing NaCl 6.9 g, KCl 0.35 g, MgSO4.7H2O 0.29 g, KH2PO4 0.16 g, NaHCO32.1 g, CaCl2) 0.28 g, glucose 2 g per 1000 mL) at 37° C. and continuously introduced with mixed gas (95% O2, 5% CO2). The remaining blood in the blood vessel was squeezed out, and the peripheral fat and connective tissue were carefully peeled off, and it was cut into 0.5 cm long arterial rings for use. […]
BL-420S biological function experiment system (Chengdu Techman Technology) was used to record the variation of vascular ring tension. After the vascular ring contraction was stable, prostaglandin E1 and the compounds of the Examples were accumulatively added to successively increase the final mass concentration of prostaglandin E1 in the bath tube to 0.05, 0.1, 0.2, 0.4, 0.8, 1.6, 3.2, 6.4, 12.8, 25.6 nM, and the diastolic efficacies of the vascular ring were recorded.

hDP1 = molecular target: T1, hDP1 (Homo sapiens, UniProt Q13258); assay: radioligand ([3H] Prostaglandin D2) competitive receptor binding assay, DP receptor affinity in vitro; details: Test Concentration 100 nM; [3H] PGD2 radioligand; read-out: Inhibition rate
T1 sequence (Q13258 1-359): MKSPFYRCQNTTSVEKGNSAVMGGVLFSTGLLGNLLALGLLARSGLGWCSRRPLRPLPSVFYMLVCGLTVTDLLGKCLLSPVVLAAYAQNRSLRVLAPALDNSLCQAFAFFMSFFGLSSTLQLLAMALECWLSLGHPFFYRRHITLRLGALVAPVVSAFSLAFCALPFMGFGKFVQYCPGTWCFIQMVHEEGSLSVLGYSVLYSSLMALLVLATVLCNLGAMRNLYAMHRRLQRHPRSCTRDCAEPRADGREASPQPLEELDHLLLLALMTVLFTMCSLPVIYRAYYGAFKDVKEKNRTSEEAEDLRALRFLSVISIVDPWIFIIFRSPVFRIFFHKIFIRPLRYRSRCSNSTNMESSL
Source text: Affinity Test of DP Receptor Target In Vitro.
The radioligand ([3H] Prostaglandin D2 (PGD2)) competitive receptor binding assay was used to evaluate the affinity of the test compound with the DP receptor.

mouse scleroderma model = mouse scleroderma model (bleomycin subcutaneously); type: in vivo, Balb/c mice; details: for Skin thickness / Collagen content: osmotic pump 28 days; for Skin thickness: inferior vena cava; for Collagen content: skin
Protocol: Therapeutic Effect of Prostaglandin E1 Methyl Ester in Mouse Scleroderma Model In this experiment, 56 Balb/c mice weighing 22-25 g were randomly divided into 7 groups: normal group, model group, vehicle group, prostaglandin E1 high-dose group and prostaglandin E1 low-dose group, and prostaglandin E1 methyl ester high-dose group and prostaglandin E1 methyl ester low-dose group. Model preparation: the clothing hair on the central area of the mice was shaved, the normal group was injected with 0.1 ml PBS subcutaneously on the back, and the other groups were injected with 0.1 ml of 0.2 mg/ml bleomycin subcutaneously, once a day for three weeks. […] Prostaglandin E1 high and low-dose groups were loaded with 28 μg and 14 μg of drugs respectively; prostaglandin E1 methyl ester high and low-dose groups were also loaded with 28 μg and 14 μg of drugs respectively; solvent group was not loaded with drugs. […] The administration was started at the same time as the model was created. Index detection: After the administration, the animals were sacrificed, and skin and lung sections of the injection site were made, and HE stained. The histological changes were observed, and the skin (dermis) thickness was measured; and the photoelectric colorimetry was used to determine the content of hydroxyproline and protein in the skin to infer the content of collagen.

[4] = distribution in rat skin tissue (total radiation value); details: 200 μg [3H]-labelled drug via osmotic pump over 3 days, inferior vena cava
Protocol: Distribution of Prostaglandin E1 Methyl Ester in Rat Skin Tissue
In this experiment, 12 male SD rats weighing 250-280 g were randomly divided into two groups (n=6): prostaglandin E1 group and prostaglandin E1 methyl ester group. Osmotic pumps (model 1003D, ALZA Corporation, Canada) containing 100 μl of drug in DMSO were used. The drug was released at a constant rate, and the drug release cycle was 3 days. They were loaded with 200 μg of [^3H] prostaglandin E1 and [^3H] prostaglandin E1 methyl ester respectively. […] After the administration, the animals were sacrificed, skin tissues were taken (the same position for each animal), weighed, and the total radiation value was measured.

[5] = 2 μL of 100 μM compound in 300 μL PRP

Skin tissue concentration [4] | EC50 [3] [nM] | Compound | inhibition at 100 µM [1, 5] [%] | duration of anticoagulant effect relative to prostaglandin E1 ([1]; compared with prostaglandin E1) [times] | onset of anti-platelet aggregation effect after addition to PRP [1] | proliferation of vascular endothelial cells [2] | EC50 ([3]; Oryctolagus cuniculus) [nM] | inhibition at 0.1 µM (hDP1) [%] | lung tissue histology (alveolar septum thickening, inflammatory cell infiltration) (mouse scleroderma model; HE stained lung sections, compared with prostaglandin E1 group) | Skin thickness (mouse scleroderma model; high-dose 1 ug/day) [μm] | Collagen content (mouse scleroderma model; high-dose 1 ug/day) [mg/L] | Skin thickness (mouse scleroderma model; low-dose 0.5 ug/day) [μm] | Collagen content (mouse scleroderma model; low-dose 0.5 ug/day) [mg/L] | inhibition rate on ADP-induced platelet aggregation ([1]; after 4 minutes of incubation, 2 μL of 100 μM compound in 300 μL PRP) [%]
– | – | CCCCCC(O)/C=C/C1C(O)CC(=O)C1CCCCCCC(=O)OC (stereo not drawn) [prostaglandin E1 methyl ester] | 43.7 | 2 | take effect immediately | significant effect of promoting the proliferation of vascular endothelial cells | 1.09 | 78 | slightly better than the prostaglandin E1 group | 21.35 ± 2.11 | 467.52 ± 141.08 | 24.66 ± 2.54 | 588.62 ± 127.41 | –
45.1 ± 7.5 ng (radiatione quivalent)/g | 9.77 | CCCCC[C@H](O)/C=C/[C@H]1[C@H](O)CC(=O)[C@@H]1CCCCCCC(=O)O [prostaglandin E1, Prostaglandin E1] | – | – | take effect immediately | – | – | – | – | 29.12 ± 2.46 | 879.66 ± 128.92 | 32.59 ± 3.03 | 947.99 ± 214.86 | 4.93
– | – | CCCCC[C@H](O)/C=C/[C@H]1[C@H](O)CC(=O)[C@@H]1CCCCCCC(=O)OCC [Compound 2] | 51.9 | – | does not take effect immediately | – | – | – | – | – | – | – | – | –
